Test results taken from publication PMC9437101, “Curcumin-based-fluorescent probes targeting ALDH1A3 as a promising tool for glioblastoma precision surgery and early diagnosis” (Communications Biology, 2022).
Several values for one entry are separate records, joined by “and”; a condition that tells them apart may be missing. Equal values may be shown once.

How the values were obtained:
Experiment in all cases: Fluorescence signal change of probe with recombinant enzyme (cross reaction assay)
Format in all cases: binding
[1] = biological target: T1, ALDH1A1 (Homo sapiens, UniProt P00352); conditions: probe 10 μM; for probe fluorescence intensity (normalized): ALDH1A1 100 μM
T1 construct: E. coli BL21 (DE3) were transformed with the full-length expression vector of each isoform; His-tag; made in house; host or cells: E. coli BL21 (DE3)
T1 sequence (P00352 1-501): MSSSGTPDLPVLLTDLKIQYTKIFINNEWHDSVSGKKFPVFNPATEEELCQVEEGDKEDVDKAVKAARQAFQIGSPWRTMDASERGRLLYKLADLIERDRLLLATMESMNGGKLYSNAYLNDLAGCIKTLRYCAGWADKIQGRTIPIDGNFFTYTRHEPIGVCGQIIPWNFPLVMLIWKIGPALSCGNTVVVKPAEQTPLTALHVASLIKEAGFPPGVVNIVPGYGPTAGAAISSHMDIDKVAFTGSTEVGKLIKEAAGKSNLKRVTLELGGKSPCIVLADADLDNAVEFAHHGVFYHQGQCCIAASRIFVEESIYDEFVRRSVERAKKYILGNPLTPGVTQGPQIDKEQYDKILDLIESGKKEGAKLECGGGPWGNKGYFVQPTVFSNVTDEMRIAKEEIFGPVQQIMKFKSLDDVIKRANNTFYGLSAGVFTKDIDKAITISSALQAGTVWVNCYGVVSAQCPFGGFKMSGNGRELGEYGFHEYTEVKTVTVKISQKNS
From the text: (§1) All five fluorescent compounds were firstly characterized for their solubility in physiological buffer and for their absorbance values. We then performed a 3D analysis using a TECAN SPARK to simultaneously evaluate the excitation and the emission wavelengths, that were supposed to be similar to the curcumin ones[48]. […] For these reasons, we decided to continue the biochemical characterization on Probe 10 and 11 using the selected parameters (Fig. 2). The fluorescent signal changes for both molecules upon binding to the target, were firstly evaluated with recombinant human ALDH1A3. […] To better characterized our fluorescent compounds, we tested their potential cross-reactivity toward the other two isoforms of the ALDH1A subfamily. […] In addition, a wide range of biologically relevant analytes were tested at a concentration of 100 μM in complex with a fixed concentration of 10 μM of the probe (either probe 10 or probe 11), to make sure that no potential off-target signals could affect the analysis. More specifically, we checked if there were abnormal fluorescence signals that could have been contributed by the presence of biologically relevant compounds, (e.g., biologically relevant amino acids), to buffers and molecules commonly used in experimental procedures.
(§2) Based on the values obtained by the 3D analysis, a wide series of biomolecules directly used in the biochemical experiment, both in vitro and in vivo, and listed in Table 1, were tested in complex with a fixed concentration of 10 μM of both probes, to measure any possible cross reaction signal.

[2] = biological target: T2, ALDH1A2 (Homo sapiens, UniProt O94788); conditions: probe 10 μM; for probe fluorescence intensity (normalized): ALDH1A2 100 μM
T2 construct: E. coli BL21 (DE3) were transformed with the full-length expression vector of each isoform; His-tag; made in house; host or cells: E. coli BL21 (DE3)
T2 sequence (O94788 1-518): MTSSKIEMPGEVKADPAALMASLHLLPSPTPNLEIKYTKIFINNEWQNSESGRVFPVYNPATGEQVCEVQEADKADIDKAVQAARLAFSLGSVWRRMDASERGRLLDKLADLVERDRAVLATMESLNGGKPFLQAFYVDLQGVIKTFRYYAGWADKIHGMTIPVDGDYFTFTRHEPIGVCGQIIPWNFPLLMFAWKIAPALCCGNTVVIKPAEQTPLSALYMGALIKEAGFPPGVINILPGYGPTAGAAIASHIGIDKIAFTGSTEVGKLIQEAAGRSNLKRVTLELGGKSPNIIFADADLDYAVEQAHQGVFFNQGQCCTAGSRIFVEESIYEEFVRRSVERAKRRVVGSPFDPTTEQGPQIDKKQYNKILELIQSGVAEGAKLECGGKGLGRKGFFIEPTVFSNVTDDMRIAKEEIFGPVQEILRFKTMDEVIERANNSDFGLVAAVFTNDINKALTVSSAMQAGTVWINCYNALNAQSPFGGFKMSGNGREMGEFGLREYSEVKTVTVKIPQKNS
From the text: as §1, §2

[3] = biological target: T3, ALDH1A3 (Homo sapiens, UniProt P47895); conditions: probe 10 μM; for probe fluorescence intensity (normalized): ALDH1A3 100 μM; for increase in the intensity of the fluorescent signal on addition of ALDH1A3: vs probe alone
T3 construct: E. coli BL21 (DE3) were transformed with the full-length expression vector of each isoform; His-tag; made in house; host or cells: E. coli BL21 (DE3)
T3 sequence (P47895 1-512): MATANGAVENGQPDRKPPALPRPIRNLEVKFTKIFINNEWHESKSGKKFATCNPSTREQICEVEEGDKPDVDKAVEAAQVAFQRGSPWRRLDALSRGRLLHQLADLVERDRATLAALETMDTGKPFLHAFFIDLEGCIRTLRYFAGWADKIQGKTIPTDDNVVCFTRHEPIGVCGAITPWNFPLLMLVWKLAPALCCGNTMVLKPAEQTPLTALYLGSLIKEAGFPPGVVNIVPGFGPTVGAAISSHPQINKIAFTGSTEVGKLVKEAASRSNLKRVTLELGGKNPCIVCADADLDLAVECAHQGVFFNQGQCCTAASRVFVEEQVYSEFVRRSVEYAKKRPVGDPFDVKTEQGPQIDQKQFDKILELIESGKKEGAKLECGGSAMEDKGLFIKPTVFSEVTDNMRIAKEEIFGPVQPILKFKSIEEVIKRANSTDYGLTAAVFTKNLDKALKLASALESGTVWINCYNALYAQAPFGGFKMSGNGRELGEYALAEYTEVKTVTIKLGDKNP
From the text: as §1, §2

Compound	probe fluorescence intensity (normalized) ([1]; listed as probe A)	reduction of the fluorescence signal with ALDH1A1 compared to ALDH1A3 [1]	probe fluorescence intensity (normalized) ([2]; listed as probe A)	reduction of the fluorescence signal with ALDH1A2 compared to ALDH1A3 [2]	probe fluorescence intensity (normalized) ([3]; listed as probe A)	increase in the intensity of the fluorescent signal on addition of ALDH1A3 [3]	probe fluorescence intensity (normalized) ([1]; listed as probe B)	probe fluorescence intensity (normalized) ([2]; listed as probe B)	probe fluorescence intensity (normalized) ([3]; listed as probe B)
CCOC(=O)Cn1cc(COc2ccc(/C=C/C(=O)/C=C(O)/C=C/c3ccc(O)c(OC)c3)cc2OC)nn1 [Probe 11]	4.322 and 4.415 and 4.4337	4 folds	5.638 and 5.434 and 5.428	6 folds	7.871 and 7.494 and 8.003	~8 folds			
COc1cc(/C=C/C(O)=C/C(=O)/C=C/c2ccc(OCc3cn(CCOc4ccc(C=O)cc4)nn3)c(OC)c2)ccc1O [Probe 10]		about 2 folds		~4 folds		about 12 folds	2.886 and 2.75 and 2.685	4.479 and 4.412 and 3.9708	11.108 and 11.7869 and 9.709
